Data reported in US7807664B2, “4,4-difluoro-1,2,3,4-tetrahydro-5H-1-benzazepine derivative or salt thereof” (Astella Pharma Inc., priority 2003, dated 2010).

Columns and labels:
CYP3A4 = CYP3A4 (Homo sapiens, UniProt P08684); assay: Cytochrome P450 (3A4) Enzyme Inhibition Test; assay type: in vitro ADME; details: substrate 7-benzyloxy-4-(trifluoromethyl)cumarin, 37° C. 30 minutes; read-out: CYP3A4 inhibitory activity IC50
Method: (4) Cytochrome P450 (3A4) Enzyme Inhibition Test
(§1) This test was carried out in accordance with the method of Crespi et al. (Analytical Biochemistry, 248, 188-190, 1997).
(§2) Using a 96 well plate, 7-benzyloxy-4-(trifluoromethyl)cumarin as the substrate (5×10^−5 M), each test compound (from 4.9×10^−8 to 5×10^−5 M) and the enzyme (5×10^−9 M) were incubated at 37° C. for 30 minutes in 200 μl in total volume of 200 mM phosphate buffer (pH=7.4) containing 8.2 μM NADP+, 0.41 mM glucose-6-phosphate, 0.41 mM MgCl2 and 0.4 units/ml glucose-6-phosphate dehydrogenase. Thereafter, the reaction was stopped by adding 0.5 M 2-amino-2-hydroxymethyl-1,3-propanediol aqueous solution containing 80% acetonitrile, and the fluorescence intensity (excitation wavelength; 409 nm, fluorescence wavelength; 530 nm) was measured using a fluorescence plate reader. The inhibition ratio was calculated based on the following formula, and concentration of each test compound by which the inhibition ratio becomes 50% (IC50) was obtained. Inhibition ratio (%)=100−(C1−B1)/(C0−B1)×100 C1: Fluorescence intensity in the presence of test compound having known concentration, enzyme and substrate C0: Fluorescence intensity in the absence of test compound and in the presence of enzyme and substrate B1: Fluorescence intensity of blank well (5) Cytochrome P450 (2C9) Enzyme Inhibition Test

CYP2C9 = CYP2C9 (Homo sapiens, UniProt P11712); assay: Cytochrome P450 (2C9) Enzyme Inhibition Test; assay type: in vitro ADME; details: substrate 7-methoxy-4-(trifluoromethyl)cumarin, 37° C. 45 minutes; read-out: CYP2C9 inhibitory activity IC50
Method: as §2, §1
Using a 96 well plate, 7-methoxy-4-(trifluoromethyl)cumarin as the substrate (7.5×10^−5 M), each test compound (from 4.9×10^−8 to 5×10^−5 M) and the enzyme (10^−8 M) were incubated at 37° C. for 45 minutes in 200 μl in total volume of 200 mM phosphate buffer (pH=7.4) containing 8.2 μM NADP+, 0.41 mM glucose-6-phosphate, 0.41 mM MgCl2 and 0.4 units/ml glucose-6-phosphate dehydrogenase. Thereafter, the reaction was stopped by adding 0.5 M 2-amino-2-hydroxymethyl-1,3-propanediol aqueous solution containing 80% acetonitrile, and the fluorescence intensity (excitation wavelength; 409 nm, fluorescence wavelength; 530 nm) was measured using a fluorescence plate reader. The inhibition ratio was calculated based on the same formula of aforementioned (4), and concentration of each test compound by which the inhibition ratio becomes 50% (IC50) was obtained.

human V2 receptor = target: T1, human V2 receptor (Homo sapiens, UniProt P30518); assay: V2 Receptor Binding Test; details: human V2 expression CHO cell membrane, [3H]-vasopressin 0.5 nM, 25° C. 60 minutes; read-out: Affinity for V2 receptor Ki
T1 construct: expressed in transfected cells; host or cells: CHO cells (membrane preparation)
Method: (1) V2 Receptor Binding Test
A human V2 expression CHO cell membrane sample was prepared in accordance with the method of Tahara et al. (British Journal of Pharmacology, Vol. 125, pp. 1463-1470, 1998). A 2 μg portion of the membrane sample was incubated together with [^3H]-arginine vasopressin (to be referred simply to as “[^3H]-vasopressin” hereinafter) (0.5 nM, specific activity=75 Ci/mmol) and each compound to be tested (10^−10 to 10^−5 M) at 25° C. for 60 minutes in 250 μl in total volume of 50 mM Tris-HCl buffer (pH=7.4) containing 10 mM MgCl2 and 0.1% bovine serum albumin (BSA). Thereafter, free [^3H]-vasopressin and receptor-bonded [^3H]-vasopressin were separated using a cell harvester, and the receptor-bonded [^3H]-vasopressin was adhered onto a uni-filter plate GF/B glass filter. After sufficient drying, this was mixed with a microplate scintillation cocktail, amount of the receptor-bonded [^3H]-vasopressin was measured using top count and the inhibition ratio was calculated by the following formula. Inhibition ratio(%)=100−(C1−B1)/(C0−B1)×100 C1: Amount of [^3H]-vasopressin bonded to the membrane sample when [^3H]-vasopressin and the receptor membrane sample are treated in the coexistence of test compound having known concentration C0: Amount of [^3H]-vasopressin bonded to the membrane sample when [^3H]-vasopressin and the receptor membrane sample are treated in the absence of test compound B1: Amount of [^3H]-vasopressin bonded to the membrane sample when [^3H]-vasopressin and the receptor membrane sample are treated in the coexistence of excess amount of vasopressin (10^−6 M)
Concentration of each test compound by which the inhibition ratio becomes 50% (IC50 value) was calculated by the aforementioned formula, and affinity of the test compound for the receptor, namely dissociation constant (Ki), was calculated from this by the following formula. Dissociation constant(Ki)=IC50/(1+[L]/Kd) [L]: Concentration of [^3H]-vasopressin Kd: Dissociation constant of [^3H]-vasopressin against the receptor obtained by a saturation binding test

male Wistar rats = assay: Antidiuretic Test (Intravenous Administration); assay type: in vivo; details: rat, 0.3 mg/kg intravenous, water loading 30 ml/kg 15 minutes later; for Urine excretion ratio (%) After 1 hour: urine until 1 hour; for Urine excretion ratio (%) After 2 hours: urine until 2 hours
Method: (2) Antidiuretic Test (Intravenous Administration)
Five animals per group of male Wistar rats (10 to 12 weeks of age) were used in the test. The compound of Example 3 was intravenously administered to group A at a dose of 0.3 mg/kg, and the compound of Example 9 to group B at a dose of 0.3 mg/kg, both after dissolving in a solvent (physiological saline containing DMSO), and the solvent alone at a dose of 1 ml/kg to group C as a control, and then 30 ml/kg of distilled water was orally administered by force 15 minutes thereafter (water loading). Urine samples until 2 hours after the water loading were collected using a metabolism cage, and the amount of urine when the water loading amount was defined as 100% was calculated as the urine excretion ratio. In this connection, average value of the urine excretion ratio until after 1 hour and the urine excretion ratio until after 2 hours in each group was used in the evaluation.

Sequence of CYP2C9 (P11712 whole entry): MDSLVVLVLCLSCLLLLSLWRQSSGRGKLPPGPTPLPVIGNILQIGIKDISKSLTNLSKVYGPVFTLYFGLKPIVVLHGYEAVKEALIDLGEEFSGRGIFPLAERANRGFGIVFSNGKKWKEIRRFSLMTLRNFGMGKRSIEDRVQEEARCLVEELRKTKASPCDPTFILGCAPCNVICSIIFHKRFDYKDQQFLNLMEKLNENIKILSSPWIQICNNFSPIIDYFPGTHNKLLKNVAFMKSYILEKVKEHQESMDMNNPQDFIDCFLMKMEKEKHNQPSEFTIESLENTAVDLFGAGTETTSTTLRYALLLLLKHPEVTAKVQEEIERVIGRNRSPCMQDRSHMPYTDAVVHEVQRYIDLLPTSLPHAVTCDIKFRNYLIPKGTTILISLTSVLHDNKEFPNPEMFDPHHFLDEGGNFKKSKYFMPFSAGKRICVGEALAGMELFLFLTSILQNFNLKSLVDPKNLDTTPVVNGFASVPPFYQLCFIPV
T1 sequence (P30518 whole entry): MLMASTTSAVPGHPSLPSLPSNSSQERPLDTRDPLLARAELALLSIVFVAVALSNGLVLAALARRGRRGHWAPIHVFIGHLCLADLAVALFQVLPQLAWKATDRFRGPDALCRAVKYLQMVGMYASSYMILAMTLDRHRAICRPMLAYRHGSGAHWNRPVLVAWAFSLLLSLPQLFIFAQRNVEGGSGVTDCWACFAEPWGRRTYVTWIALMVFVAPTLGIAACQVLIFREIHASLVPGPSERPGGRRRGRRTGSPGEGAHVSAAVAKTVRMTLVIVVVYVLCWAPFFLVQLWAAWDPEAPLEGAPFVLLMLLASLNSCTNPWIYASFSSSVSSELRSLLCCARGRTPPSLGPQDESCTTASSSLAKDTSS
Sequence of CYP3A4 (P08684 whole entry): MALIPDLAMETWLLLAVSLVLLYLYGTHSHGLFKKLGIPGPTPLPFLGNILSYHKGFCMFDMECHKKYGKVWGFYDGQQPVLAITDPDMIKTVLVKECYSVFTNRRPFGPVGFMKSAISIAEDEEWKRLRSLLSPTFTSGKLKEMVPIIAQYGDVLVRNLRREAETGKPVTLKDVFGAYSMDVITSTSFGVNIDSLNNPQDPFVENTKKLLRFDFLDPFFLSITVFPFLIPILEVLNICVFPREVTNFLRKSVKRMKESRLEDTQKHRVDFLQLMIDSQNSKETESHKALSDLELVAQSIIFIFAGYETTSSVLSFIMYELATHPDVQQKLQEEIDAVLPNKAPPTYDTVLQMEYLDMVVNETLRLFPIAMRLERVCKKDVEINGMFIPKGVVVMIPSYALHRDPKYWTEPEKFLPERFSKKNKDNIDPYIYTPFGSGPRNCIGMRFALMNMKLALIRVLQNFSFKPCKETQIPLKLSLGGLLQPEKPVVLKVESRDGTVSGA

SMILES | IC50 (CYP3A4) [nM] | IC50 (CYP2C9) [nM] | Ki (human V2 receptor) [nM] | Urine excretion ratio (%) After 1 hour (male Wistar rats) [%] | Urine excretion ratio (%) After 2 hours (male Wistar rats) [%]
CC(C)NC(=O)C[C@H]1CCCN(C(=O)c2ccc(N3CCCC3)cc2Cl)c2ccccc21 [Comparative compound, 2-[(5R)-1-(2-chloro-4-pyrrolidin-1-ylbenzoyl)-2,3,4,5-tetrahydrobenzazepin-5-yl]-N-isopropylacetamide, reference compound] | < 91 | < 91 | – | – | –
NC(=O)CNC(=O)/C=C1/c2ccccc2N(C(=O)c2ccc(OCC3CC3)cc2C(F)(F)F)CCC1(F)F [Example 3] | > 50000 | > 50000 | 11 | 1.3 | 6.2
CCCCOc1ccc(C(=O)N2CCC(F)(F)/C(=C\C(=O)NCC(N)=O)c3ccccc32)c(C(F)(F)F)c1 [Example 9] | 13000 | 11000 | 19 | 0 | 5.3
CCCN(C)c1ccc(C(=O)N2CCC(F)(F)/C(=C\C(=O)NCC(N)=O)c3ccccc32)c(C(F)(F)F)c1 [Example 14] | – | – | 18 | – | –
CCCOc1ccc(C(=O)N2CCC(F)(F)/C(=C\C(=O)NCC(N)=O)c3cc(Cl)ccc32)c(C(F)(F)F)c1 [Example 24] | – | – | 4.3 | – | –
C[C@@H](F)COc1ccc(C(=O)N2CCC(F)(F)/C(=C\C(=O)NCC(N)=O)c3cc(F)ccc32)c(C(F)(F)F)c1 [Example 31, (2Z)-N-(2-amino-2-oxoethyl)-2-{4,4,7-trifluoro-1-[4-{[(2R)-2-fluoropropyl]oxy}-2-(trifluoromethyl)benzoyl]-1,2,3,4-tetrahydro-5H-1-benzazepin-5-ylidene}acetamide] | – | – | 10 | – | –
CCCOc1ccc(C(=O)N2CCC(F)(F)/C(=C\C(=O)NCCO)c3cc(F)ccc32)c(C(F)(F)F)c1 [Example 46] | – | – | 5.8 | – | –
CC(F)(F)COc1ccc(C(=O)N2CCC(F)(F)/C(=C\C(=O)NCCO)c3ccccc32)c(C(F)(F)F)c1 [Example 51, (2Z)-2-{1-[4-(2,2-difluoropropoxy)-2-(trifluoromethyl)benzoyl]-4,4-difluoro-1,2,3,4-tetrahydro-5H-1-benzazepin-5-ylidene}-N-(2-hydroxyethyl)acetamide] | > 50000 | 34000 | – | – | –
C[C@H](F)COc1ccc(C(=O)N2CCC(F)(F)/C(=C\C(=O)NCCO)c3cc(F)ccc32)c(C(F)(F)F)c1 [Example 54, (2Z)-N-(2-hydroxyethyl)-2-{4,4,7-trifluoro-1-[4-{[(2S)-2-fluoropropyl]oxy}-2-(trifluoromethyl)benzoyl]-1,2,3,4-tetrahydro-5H-1-benzazepin-5-ylidene}acetamide] | > 50000 | 43000 | 17 | – | –
C[C@@H](F)COc1ccc(C(=O)N2CCC(F)(F)/C(=C\C(=O)NCCO)c3cc(F)ccc32)c(C(F)(F)F)c1 [Example 55, (2Z)-N-(2-hydroxyethyl)-2-{4,4,7-trifluoro-1-[4-{[(2R)-2-fluoropropyl]oxy}-2-(trifluoromethyl)benzoyl]-1,2,3,4-tetrahydro-5H-1-benzazepin-5-ylidene}acetamide] | – | – | 16 | – | –
CCCOc1ccc(C(=O)N2CCC(F)(F)/C(=C\C(=O)Nc3cccc(O)c3)c3ccccc32)c(C(F)(F)F)c1 [Example 98] | – | – | 6.2 | – | –
C[C@@H](F)COc1ccc(C(=O)N2CCC(F)(F)/C(=C\C(=O)NC[C@H](O)CO)c3ccccc32)c(C(F)(F)F)c1 [Example 130, (2Z)-2-{4,4-difluoro-1-[4-{[(2R)-2-fluoropropyl]oxy}-2-(trifluoromethyl)benzoyl]-1,2,3,4-tetrahydro-5H-1-benzazepin-5-ylidene}-N-[(2S)-2,3-dihydroxypropyl]acetamide] | > 50000 | > 50000 | – | – | –
C[C@@H](F)COc1ccc(C(=O)N2CCC(F)(F)/C(=C\C(=O)NCCC(N)=O)c3cc(F)ccc32)c(C(F)(F)F)c1 [Example 134, 3-[((2Z)-2-{4,4,7-trifluoro-1-[4-{[(2R)-2-fluoropropyl]oxy}-2-(trifluoromethyl)benzoyl]-1,2,3,4-tetrahydro-5H-1-benzazepin-5-ylidene}acetyl)amino]propanamide] | – | – | 12 | – | –
C[C@@H](F)COc1ccc(C(=O)N2CCC(F)(F)/C(=C\C(=O)NC[C@@H](O)CO)c3cc(F)ccc32)c(C(F)(F)F)c1 [Example 136, (2Z)-N-[(2R)-2,3-dihydroxypropyl]-2-{4,4,7-trifluoro-1-[4-{[(2R)-2-fluoropropyl]oxy}-2-(trifluoromethyl)benzoyl]-1,2,3,4-tetrahydro-5H-1-benzazepin-5-ylidene}acetamide] | > 50000 | > 50000 | 11 | – | –
